From patent publication US12139520B2 (priority 2020, dated 2024)
Numbered stars: 1 amine (or outer) side, 2 acyl side, 3 side chain; on linkers, the order of the positions; unused ones are H or OH. Bridge positions count the residues as written; N and C are the ends. Peptide text beside a SMILES is read from it. * marks the point of attachment. C20 diacid = O=C(O)CCCCCCCCCCCCCCCCCCC(=O)*; γGlu = O=C(O)[C@H](CCC(=O)[*:2])N[*:1]

biological target: T1, hAMY3 receptor (Homo sapiens, UniProt O60896+P30988); test: cAMP assay for in vitro receptor activation, hAMY3-R; type: cell-based; conditions: cAMP assay, hAMY3 receptor; read-out: hAMY3R EC50
T1 sequence (P30988 25-474): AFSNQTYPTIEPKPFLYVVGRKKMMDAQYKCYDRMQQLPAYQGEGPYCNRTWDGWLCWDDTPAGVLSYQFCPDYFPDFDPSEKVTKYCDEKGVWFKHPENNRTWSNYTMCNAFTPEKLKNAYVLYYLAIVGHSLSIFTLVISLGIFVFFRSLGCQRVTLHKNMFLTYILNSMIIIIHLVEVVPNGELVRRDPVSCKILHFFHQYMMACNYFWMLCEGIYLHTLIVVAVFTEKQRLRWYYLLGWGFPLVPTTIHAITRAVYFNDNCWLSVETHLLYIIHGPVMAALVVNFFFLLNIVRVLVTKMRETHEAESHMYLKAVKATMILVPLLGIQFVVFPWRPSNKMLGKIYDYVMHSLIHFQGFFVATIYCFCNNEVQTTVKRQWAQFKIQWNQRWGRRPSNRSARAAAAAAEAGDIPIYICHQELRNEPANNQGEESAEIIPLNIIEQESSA
T1 sequence (O60896 24-148 partner): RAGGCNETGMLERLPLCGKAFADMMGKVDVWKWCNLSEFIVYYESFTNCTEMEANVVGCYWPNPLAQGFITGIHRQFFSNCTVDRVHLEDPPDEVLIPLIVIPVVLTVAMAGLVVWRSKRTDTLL
How it was run: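 Monoclonal cell line stably overexpressing hAMY3 receptor, plated in DPBS with 0.05% casein and 0.5 mM IBMX, was stimulated with graded compound doses for 30 min at room temperature. cAMP accumulation was read by time-resolved FRET one hour after adding detection reagents.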

EC50 | Structure (SMILES)
0.186 nM | CC(C)C[C@H](NC(=O)[C@H](CCCNC(=N)N)NC(=O)[C@H](CCC(N)=O)NC(=O)[C@@H](NC(=O)[C@@H](NC(=O)[C@@H]1CSSC[C@H](NC(=O)CNC(=O)CC[C@H](NC(=O)CCCCCCCCCCCCCCCCCCC(=O)O)C(=O)O)C(=O)N[C@@H](CCCNC(=N)N)C(=O)N[C@@H](Cc2ccccc2)C(=O)NCC(=O)N[C@@H]([C@@H](C)O)C(=O)N1)[C@@H](C)O)C(C)C)C(=O)N[C@@H](C)C(=O)N[C@@H](Cc1c[nH]cn1)C(=O)N[C@@H](Cc1ccccc1)C(=O)N[C@@H](CC(C)C)C(=O)N[C@@H](Cc1ccc(O)cc1)C(=O)N[C@@H](CCC(N)=O)C(=O)N[C@@H](Cc1ccccc1)C(=O)N[C@H](C(=O)N[C@@H](CC(=O)O)C(=O)N[C@@H](CCCCN)C(=O)N[C@@H](CC(=O)O)C(=O)N[C@@H](CCCCN)C(=O)N[C@@H](CC(=O)O)C(=O)N[C@@H](CC(N)=O)C(=O)N[C@H](C(=O)N[C@@H](C)C(=O)N1CCC[C@H]1C(=O)N[C@@H](CCCNC(=N)N)C(=O)N[C@H](C(=O)N[C@@H](CCCCN)C(=O)N[C@H](C(=O)NCC(=O)N[C@@H](CO)C(=O)N[C@@H](CC(N)=O)C(=O)NCC(=O)N[C@@H](Cc1ccc(O)cc1)C(N)=O)C(C)C)[C@@H](C)O)C(C)C)[C@@H](C)O [compound 223] ({C20 diacid-γGlu}-GCRFGTCTVQRLAHFLYQFTDKDKDNVAPRTKVGSNGY-NH2; disulfide 2-7)
0.009 nM | CC[C@H](C)[C@H](NC(=O)[C@H](CCC(N)=O)NC(=O)[C@H](Cc1c[nH]cn1)NC(=O)[C@H](C)NC(=O)[C@H](CC(C)C)NC(=O)[C@H](CCCNC(=N)N)NC(=O)[C@H](CCC(N)=O)NC(=O)[C@@H](NC(=O)[C@@H](NC(=O)[C@@H]1CSSC[C@H](NC(=O)[C@@H](N)CCCCN)C(=O)N[C@@H](CC(N)=O)C(=O)N[C@@H]([C@@H](C)O)C(=O)N[C@@H](C)C(=O)N[C@@H]([C@@H](C)O)C(=O)N1)[C@@H](C)O)C(C)C)C(=O)N[C@@H](Cc1ccc(O)cc1)C(=O)N[C@@H](CCC(N)=O)C(=O)N[C@@H](Cc1ccccc1)C(=O)N[C@H](C(=O)N[C@@H](CC(=O)O)C(=O)N[C@@H](CCCCN)C(=O)N[C@@H](CC(=O)O)C(=O)N[C@@H](CCCCN)C(=O)N[C@@H](CC(=O)O)C(=O)N[C@@H](CC(N)=O)C(=O)N[C@H](C(=O)N[C@@H](C)C(=O)N1CCC[C@H]1C(=O)N[C@@H](CCCNC(=N)N)C(=O)N[C@H](C(=O)N[C@@H](CCCCN)C(=O)N[C@H](C(=O)NCC(=O)N[C@@H](CO)C(=O)N[C@@H](CC(N)=O)C(=O)NCC(=O)N[C@@H](Cc1ccc(O)cc1)C(N)=O)C(C)C)[C@@H](C)O)C(C)C)[C@@H](C)O [compound 34] (H-KCNTATCTVQRLAHQIYQFTDKDKDNVAPRTKVGSNGY-NH2; disulfide 2-7; N-terminus assumed)
0.012 nM | CC(C)C[C@H](NC(=O)[C@H](CCCNC(=N)N)NC(=O)[C@H](CCC(N)=O)NC(=O)[C@@H](NC(=O)[C@@H](NC(=O)[C@@H]1CSSC[C@H](NC(=O)CN)C(=O)N[C@@H](CCCNC(=N)N)C(=O)N[C@@H](Cc2ccccc2)C(=O)NCC(=O)N[C@@H]([C@@H](C)O)C(=O)N1)[C@@H](C)O)C(C)C)C(=O)N[C@@H](C)C(=O)N[C@@H](Cc1c[nH]cn1)C(=O)N[C@@H](Cc1ccccc1)C(=O)N[C@@H](CC(C)C)C(=O)N[C@@H](Cc1ccc(O)cc1)C(=O)N[C@@H](CCC(N)=O)C(=O)N[C@@H](Cc1ccccc1)C(=O)N[C@H](C(=O)N[C@@H](CC(=O)O)C(=O)N[C@@H](CCCCN)C(=O)N[C@@H](CC(=O)O)C(=O)N[C@@H](CCCCN)C(=O)N[C@@H](CC(=O)O)C(=O)N[C@@H](CC(N)=O)C(=O)N[C@H](C(=O)N[C@@H](C)C(=O)N1CCC[C@H]1C(=O)N[C@@H](CCCNC(=N)N)C(=O)N[C@H](C(=O)N[C@@H](CC(N)=O)C(=O)N[C@H](C(=O)NCC(=O)N[C@@H](CO)C(=O)N[C@@H](CC(N)=O)C(=O)N[C@H](C(=O)N[C@@H](Cc1ccc(O)cc1)C(N)=O)[C@@H](C)O)C(C)C)[C@@H](C)O)C(C)C)[C@@H](C)O [compound 56] (H-GCRFGTCTVQRLAHFLYQFTDKDKDNVAPRTNVGSNTY-NH2; disulfide 2-7; N-terminus assumed)
0.019 nM | CC[C@H](C)[C@H](NC(=O)[C@H](CCC(N)=O)NC(=O)[C@H](Cc1c[nH]cn1)NC(=O)[C@H](C)NC(=O)[C@H](CC(C)C)NC(=O)[C@H](CCCNC(=N)N)NC(=O)[C@H](CCC(N)=O)NC(=O)[C@@H](NC(=O)[C@@H](NC(=O)[C@@H]1CSSC[C@H](NC(=O)CN)C(=O)N[C@@H](CCCNC(=N)N)C(=O)N[C@@H](Cc2ccccc2)C(=O)NCC(=O)N[C@@H]([C@@H](C)O)C(=O)N1)[C@@H](C)O)C(C)C)C(=O)N[C@@H](Cc1ccc(O)cc1)C(=O)N[C@@H](CCC(N)=O)C(=O)N[C@@H](Cc1ccccc1)C(=O)N[C@H](C(=O)N[C@@H](CC(=O)O)C(=O)N[C@@H](CCCCN)C(=O)N[C@@H](CC(=O)O)C(=O)N[C@@H](CCCCN)C(=O)N[C@@H](CC(=O)O)C(=O)N[C@@H](CC(N)=O)C(=O)N[C@H](C(=O)N[C@@H](C)C(=O)N1CCC[C@H]1C(=O)N[C@@H](CCCNC(=N)N)C(=O)N[C@H](C(=O)N[C@@H](CCCCN)C(=O)N[C@H](C(=O)N[C@@H](CO)C(=O)N1CCC[C@H]1C(=O)N[C@@H](CC(N)=O)C(=O)NCC(=O)N[C@@H](Cc1ccc(O)cc1)C(N)=O)[C@@H](C)CC)[C@@H](C)O)C(C)C)[C@@H](C)O [compound 371] (H-GCRFGTCTVQRLAHQIYQFTDKDKDNVAPRTKISPNGY-NH2; disulfide 2-7; N-terminus assumed)
0.024 nM | CC(C)C[C@H](NC(=O)[C@H](CCCNC(=N)N)NC(=O)[C@H](CCC(N)=O)NC(=O)[C@@H](NC(=O)[C@@H](NC(=O)[C@@H]1CSSC[C@H](NC(=O)CN)C(=O)N[C@@H](CCCNC(=N)N)C(=O)N[C@@H](Cc2ccccc2)C(=O)N[C@@H](C)C(=O)N[C@@H]([C@@H](C)O)C(=O)N1)[C@@H](C)O)C(C)C)C(=O)N[C@@H](C)C(=O)N[C@@H](Cc1c[nH]cn1)C(=O)N[C@@H](Cc1ccccc1)C(=O)N[C@@H](CC(C)C)C(=O)N[C@@H](Cc1ccc(O)cc1)C(=O)N[C@@H](CCC(N)=O)C(=O)N[C@@H](Cc1ccccc1)C(=O)N[C@H](C(=O)N[C@@H](CC(=O)O)C(=O)N[C@@H](CCCCN)C(=O)N[C@@H](CC(=O)O)C(=O)N[C@@H](CCCCN)C(=O)N[C@@H](CC(=O)O)C(=O)N[C@@H](CC(N)=O)C(=O)N[C@H](C(=O)N[C@@H](C)C(=O)N1CCC[C@H]1C(=O)N[C@@H](CCCNC(=N)N)C(=O)N[C@H](C(=O)N[C@@H](CCCCN)C(=O)N[C@H](C(=O)NCC(=O)N1CCC[C@H]1C(=O)N[C@@H](CCC(N)=O)C(=O)NCC(=O)N[C@@H](Cc1ccc(O)cc1)C(N)=O)C(C)C)[C@@H](C)O)C(C)C)[C@@H](C)O [compound 377] (H-GCRFATCTVQRLAHFLYQFTDKDKDNVAPRTKVGPQGY-NH2; disulfide 2-7; N-terminus assumed)
